Results as given in ChEMBL document CHEMBL1201862, “PubChem BioAssay data set” (2004).
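Results reflect a 48-hour exposure of cells in 96-well plates to compound at five concentrations. GI50: concentration for 50% inhibition of growth.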 Calls of active or inactive are those of the source. No stated cut-off is given here; in the data, active = GI50 up to about 1.1 µM and inactive = higher.

Legend:
Assay in all cases: DTP human tumour cell line panel, 48 h
A549 = tested on: A549
CCRF-CEM = tested on: CCRF-CEM
DU-145 = tested on: DU-145
HCC 2998 = tested on: HCC 2998
HT-29 = tested on: HT-29
IGROV-1 = tested on: IGROV-1
K562 = tested on: K562
MCF7 = tested on: MCF7
Malme-3M = tested on: Malme-3M
NCI-H23 = tested on: NCI-H23
NCI-H460 = tested on: NCI-H460
NCI/ADR-RES = tested on: NCI/ADR-RES
OVCAR-3 = tested on: OVCAR-3
OVCAR-5 = tested on: OVCAR-5
SNB-75 = tested on: SNB-75
TK-10 = tested on: TK-10
UACC-62 = tested on: UACC-62
UO-31 = tested on: UO-31
Hs-578T = tested on: Hs-578T

| Compound | GI50 (A549) | GI50 (CCRF-CEM) | GI50 (DU-145) | GI50 (HCC 2998) | GI50 (HT-29) | GI50 (IGROV-1) | GI50 (K562) | GI50 (MCF7) | GI50 (Malme-3M) | GI50 (NCI-H23) | GI50 (NCI-H460) | GI50 (NCI/ADR-RES) | GI50 (OVCAR-3) | GI50 (OVCAR-5) | GI50 (SNB-75) | GI50 (TK-10) | GI50 (UACC-62) | GI50 (UO-31) | GI50 (Hs-578T) |
| --- | --- | --- | --- | --- | --- | --- | --- | --- | --- | --- | --- | --- | --- | --- | --- | --- | --- | --- | --- |
| Cc1cccc2nc3n(c12)C(=O)c1ccccc1-3 | > 100 µM (inactive) | > 100 µM (inactive) | 44.4 µM (inactive) | > 100 µM (inactive) | > 100 µM (inactive) | > 100 µM (inactive) | > 100 µM (inactive) | > 100 µM (inactive) | > 100 µM (inactive) | > 100 µM (inactive) | > 100 µM (inactive) | > 100 µM (inactive) | > 100 µM (inactive) | > 100 µM (inactive) | > 100 µM (inactive) | > 100 µM (inactive) | > 100 µM (inactive) | > 100 µM (inactive) |  |
| C/C(=N\NC(=O)c1ccncc1)c1ccccc1Cl | > 100 µM (inactive) | > 100 µM (inactive) | > 100 µM (inactive) |  | > 100 µM (inactive) | > 100 µM (inactive) | > 100 µM (inactive) | > 100 µM (inactive) | > 100 µM (inactive) | > 100 µM (inactive) | > 100 µM (inactive) | > 100 µM (inactive) | > 100 µM (inactive) | > 100 µM (inactive) | > 100 µM (inactive) | > 100 µM (inactive) | > 100 µM (inactive) | > 100 µM (inactive) | > 100 µM (inactive) |
| Cc1ccc(C2(C)CC/C(=N/N=C3/CCC(C)(c4ccc(C)c(C)c4)c4cc(C)c(C)cc43)c3cc(C)c(C)cc32)cc1C (configuration not stated) | > 100 µM (inactive) |  | > 100 µM (inactive) |  | > 100 µM (inactive) | > 100 µM (inactive) | > 100 µM (inactive) | > 100 µM (inactive) | > 100 µM (inactive) | > 100 µM (inactive) | > 100 µM (inactive) | > 100 µM (inactive) | > 100 µM (inactive) | > 100 µM (inactive) | > 100 µM (inactive) | > 100 µM (inactive) | > 100 µM (inactive) | > 100 µM (inactive) | > 100 µM (inactive) |
| CC(C)(C)c1ccc(C(C)(C)C)c(N2C(=O)[C@@H]3[C@@H]4C=C[C@@H](C4)[C@]3(C)C2=O)c1 | 41 µM (inactive) | 7.38 µM (inactive) | 20.2 µM (inactive) | 15.5 µM (inactive) | 29.2 µM (inactive) | 18.6 µM (inactive) | 26.8 µM (inactive) | 22.4 µM (inactive) | 21.9 µM (inactive) | 45.1 µM (inactive) | 42 µM (inactive) | 29.6 µM (inactive) | 13.9 µM (inactive) | 86.5 µM (inactive) |  | 35 µM (inactive) | 13.1 µM (inactive) | 29.3 µM (inactive) | 24.2 µM (inactive) |
| Cn1c2ccc(C3=NCCN3)cc2c2cc(C3=NCCN3)ccc21 | 46.1 µM (inactive) | < 0.01 µM (active) | 26.4 µM (inactive) |  | 7.82 µM (inactive) | 24.5 µM (inactive) | 26.4 µM (inactive) |  | 18.2 µM (inactive) | 4.16 µM (inactive) | 5.38 µM (inactive) | > 100 µM (inactive) | 42 µM (inactive) | 38.4 µM (inactive) | 78.5 µM (inactive) | 60.3 µM (inactive) |  | 56.1 µM (inactive) | 10.7 µM (inactive) |
| Nc1ccc(C(=O)N/C(=C\c2ccc3c(c2)OCO3)c2nc3c(O)nc(S)nc3[nH]2)cc1 | > 100 µM (inactive) | > 100 µM (inactive) |  | > 100 µM (inactive) | > 100 µM (inactive) | > 100 µM (inactive) | > 100 µM (inactive) |  | > 100 µM (inactive) | > 100 µM (inactive) |  |  | > 100 µM (inactive) | > 100 µM (inactive) |  | > 100 µM (inactive) | > 100 µM (inactive) | > 100 µM (inactive) |  |
| O=C(OCc1ccccc1)N1CCCc2c(n(S(=O)(=O)c3ccccc3)c3ccccc23)C1 | > 100 µM (inactive) |  | > 100 µM (inactive) |  | > 100 µM (inactive) | > 100 µM (inactive) | > 100 µM (inactive) | > 100 µM (inactive) | 57.9 µM (inactive) | > 100 µM (inactive) | > 100 µM (inactive) | > 100 µM (inactive) | > 100 µM (inactive) | > 100 µM (inactive) |  | > 100 µM (inactive) | > 100 µM (inactive) | > 100 µM (inactive) | 78.7 µM (inactive) |
| CCOC(=O)c1cnc(-n2[nH]c3c(c2=O)CCCC3)[nH]c1=O | 63.1 µM (inactive) | 28.8 µM (inactive) | 57.9 µM (inactive) |  | 40.4 µM (inactive) | > 100 µM (inactive) | 20.7 µM (inactive) |  | 77.6 µM (inactive) | 72.8 µM (inactive) | 45.5 µM (inactive) | 34.8 µM (inactive) |  | 82.4 µM (inactive) |  | > 100 µM (inactive) | 29.6 µM (inactive) | 54.6 µM (inactive) | > 100 µM (inactive) |
| C=C1C[C@H](O)[C@H]2C(C[Se]c3ccccc3)C(=O)O[C@@H]2[C@H]2[C@H](C)C(O)C[C@@H]12 (some centres not stated) | 44.2 µM (inactive) | 24.8 µM (inactive) | 44.2 µM (inactive) |  | 46.1 µM (inactive) | 25.3 µM (inactive) | 36.6 µM (inactive) | > 100 µM (inactive) | 40.6 µM (inactive) | 15.7 µM (inactive) | 34 µM (inactive) | 20.2 µM (inactive) | 24.4 µM (inactive) | 20.6 µM (inactive) | 31.8 µM (inactive) | 56.9 µM (inactive) | 19.1 µM (inactive) | 22.8 µM (inactive) | 32.8 µM (inactive) |
| COC(=O)[C@@]1(Cc2ccc(O)cc2)C[C@@H]2Cc3ccccc3N2N1 | 81.7 µM (inactive) |  | > 100 µM (inactive) |  | 35.5 µM (inactive) | 78 µM (inactive) |  | 63.2 µM (inactive) | 49 µM (inactive) | 56.9 µM (inactive) |  | 31.8 µM (inactive) | > 100 µM (inactive) | > 100 µM (inactive) |  | > 100 µM (inactive) | 70.8 µM (inactive) | 75.7 µM (inactive) | 68.4 µM (inactive) |
| CN(C)c1ccc(/C=C(/NC(=O)c2ccccc2)c2nc3cc(Cl)ccc3[nH]2)cc1 | 63.2 µM (inactive) | 22.4 µM (inactive) |  | 18.5 µM (inactive) | 28.6 µM (inactive) | > 100 µM (inactive) | 19 µM (inactive) |  | 23.1 µM (inactive) | 8.51 µM (inactive) | 33.6 µM (inactive) |  | 0.0123 µM (active) | 26 µM (inactive) | 17.9 µM (inactive) | 64.4 µM (inactive) | 36 µM (inactive) | 28.8 µM (inactive) |  |
| Clc1c(C(Cl)(Cl)Cl)nsc1N1CCCCC1 | 33.9 µM (inactive) | 16.5 µM (inactive) | 28.4 µM (inactive) | 22.2 µM (inactive) | 16 µM (inactive) | 36 µM (inactive) | 19.1 µM (inactive) | 26.1 µM (inactive) | 13.5 µM (inactive) | 14 µM (inactive) | 33.6 µM (inactive) |  | 20.8 µM (inactive) | 33.7 µM (inactive) | 29 µM (inactive) | 31.6 µM (inactive) | 22 µM (inactive) | 11.4 µM (inactive) | 31.3 µM (inactive) |
| O=C(Cn1c2ccc(Br)cc2c2nc3ccccc3nc21)NNC(=O)NC1CCCCC1 | 18.3 µM (inactive) | 26.7 µM (inactive) | 24.9 µM (inactive) | > 100 µM (inactive) |  |  | 47.1 µM (inactive) | 49 µM (inactive) | 52.2 µM (inactive) | 61.4 µM (inactive) | 47.8 µM (inactive) |  | 63.5 µM (inactive) | 52.8 µM (inactive) | 23.2 µM (inactive) | 42.8 µM (inactive) | > 100 µM (inactive) | 2.52 µM (inactive) | 24.4 µM (inactive) |
| C[C@]12CC[C@@H]3c4ccc(OCC(=O)O)cc4CC[C@H]3[C@@H]1CCC2=O | > 100 µM (inactive) | 1.32 µM (inactive) | > 100 µM (inactive) |  | > 100 µM (inactive) | > 100 µM (inactive) |  | > 100 µM (inactive) | > 100 µM (inactive) | > 100 µM (inactive) | > 100 µM (inactive) | > 100 µM (inactive) | > 100 µM (inactive) | > 100 µM (inactive) | > 100 µM (inactive) | > 100 µM (inactive) | > 100 µM (inactive) | > 100 µM (inactive) | > 100 µM (inactive) |
| CCOP(=O)(O)CN1CCNCCN(CP(=O)(O)OCC)CCNCC1 | > 100 µM (inactive) | > 100 µM (inactive) | > 100 µM (inactive) |  | 61.9 µM (inactive) | > 100 µM (inactive) | > 100 µM (inactive) | > 100 µM (inactive) |  |  | > 100 µM (inactive) | > 100 µM (inactive) | > 100 µM (inactive) | > 100 µM (inactive) | > 100 µM (inactive) | > 100 µM (inactive) | > 100 µM (inactive) | 35.2 µM (inactive) | > 100 µM (inactive) |
| Cc1c(-c2ccccc2)[nH]n(C2=NCCN2)c1=O | > 100 µM (inactive) | > 100 µM (inactive) |  |  | 46.3 µM (inactive) | 67.8 µM (inactive) | > 100 µM (inactive) | > 100 µM (inactive) | 41 µM (inactive) | > 100 µM (inactive) | 78.7 µM (inactive) | > 100 µM (inactive) | > 100 µM (inactive) | > 100 µM (inactive) | 30.4 µM (inactive) | > 100 µM (inactive) | > 100 µM (inactive) | 85.1 µM (inactive) | > 100 µM (inactive) |
